Test results taken from patent publication US20050026950A1, “Methods of therapeutic treatment using retinoids to achieve consistent bioavailability” (Allergan, Inc., priority 2003, published 2005).

Legend:
Type in all cases: in vivo, human
[1] = system: severe psoriasis; assay: Patient with severe psoriasis taking Ortho-Novum treated with tazarotene; details: 6 mg per day, after 30 days
Text: The patient presents symptoms of severe psoriasis. The symptoms include lesions approximately 4 to 10 centimeters across appearing as raised patches of wine red skin many of which are covered in silvery white scales. The lesions are mostly dry and rough, and quite often noticeably warm to the touch. The lesions are present on the elbows, knees, scalp, and groin area. The patient experiences intense burning and itching associated with the lesions.
The patient is currently taking Ortho-Novum® for contraception.
Tazarotene at a dose of 6 mg per day is prescribed.

[2] = Phase 3 studies of orally administered tazarotene for psoriasis, adverse event monitoring; details: Taz 4.5 mg
Description: A series of Phase 3 studies are conducted on orally administered tazarotene for the treatment of psoriasis. Adverse events (side effects) are monitored. In addition, published data for acitretin's side effects are also considered.

[3] = Studies of orally administered tazarotene for acne, adverse event monitoring; details: combined data from Studies 1 and 2 (N = 223)
Description: Studies are conducted on orally administered tazarotene for the treatment of acne. Adverse events (side effects) are monitored.

[4] = Two placebo-controlled 24-week safety studies of oral tazarotene plus 16- to 24-week dose-response evaluations
Description: Two multicenter, double-blind, randomized, placebo-controlled 24-week studies of identical design are conducted to evaluate the safety of oral tazarotene. In addition, 16- to 24-week dose-response evaluations are performed.
In the two safety trials, the incidence of adverse side effects with a 4.5 mg dose administered orally once daily is compared to the incidence of the same side effects with a placebo. […] The majority of these were mild in severity and typical of adverse effects associated with oral retinoids.

[5] = Study 3, treated 3 months (N = 220)
[6] = Study 3, treated 6 months (N = 92)
[7] = combined data from Studies 1 and 2 (N = 348)
[8] = 4.5 mg orally once daily, two safety trials

Compound: CCOC(=O)c1ccc(C#Cc2ccc3c(c2)C(C)(C)CCS3)nc1 [tazarotene]
- psoriasis symptoms and lesions [1]: symptoms of itching and burning are relieved and the severity of their lesions are substantially lessened
- Alopecia [2, 5]: 1 (0.5) number (%) of patients
- Arthralgia [2, 5]: 28 (12.7) number (%) of patients
- Atrophy of skin [2, 5]: 0 (0.0) number (%) of patients
- Back pain [2, 5]: 7 (3.2) number (%) of patients
- Cheilitis [2, 5]: 149 (67.7) number (%) of patients
- Dry Skin [2, 5]: 47 (21.4) number (%) of patients
- Dry mouth/Oral dryness [2, 5]: 11 (5.0) number (%) of patients
- Epistaxis [2, 5]: 1 (0.5) number (%) of patients
- Erythematous rash/Erythema [2, 5]: 0 (0.0) number (%) of patients
- Hyperesthesia [2, 5]: 0 (0.0) number (%) of patients
- Nail Disorder [2, 5]: 1 (0.5) number (%) of patients
- Paresthesia [2, 5]: 3 (1.4) number (%) of patients
- Paronychia/Nail disorder [2, 5]: 1 (0.5) number (%) of patients
- Pruritus [2, 5]: 11 (5.0) number (%) of patients
- Rhinitis [2, 5]: 0 (0.0) number (%) of patients
- Rigors/Chills [2, 5]: 1 (0.5) number (%) of patients
- Skin peeling/Desquamation [2, 5]: 3 (1.4) number (%) of patients
- Sticky skin/Skin disorder [2, 5]: 0 (0.0) number (%) of patients
- Xerophthalmia/Eye disorder [2, 5]: 3 (1.4) number (%) of patients
- Alopecia [2, 6]: 5 (5.4) number (%) of patients
- Arthralgia [2, 6]: 30 (32.6) number (%) of patients
- Atrophy of skin [2, 6]: 0 (0.0) number (%) of patients
- Back pain [2, 6]: 10 (10.9) number (%) of patients
- Cheilitis [2, 6]: 65 (70.7) number (%) of patients
- Dry Skin [2, 6]: 24 (26.1) number (%) of patients
- Dry mouth/Oral dryness [2, 6]: 2 (2.2) number (%) of patients
- Epistaxis [2, 6]: 0 (0.0) number (%) of patients
- Erythematous rash/Erythema [2, 6]: 0 (0.0) number (%) of patients
- Hyperesthesia [2, 6]: 0 (0.0) number (%) of patients
- Nail Disorder [2, 6]: 1 (1.1) number (%) of patients
- Paresthesia [2, 6]: 1 (1.1) number (%) of patients
- Paronychia/Nail disorder [2, 6]: 1 (1.1) number (%) of patients
- Pruritus [2, 6]: 3 (3.3) number (%) of patients
- Rhinitis [2, 6]: 0 (0.0) number (%) of patients
- Rigors/Chills [2, 6]: 1 (1.1) number (%) of patients
- Skin peeling/Desquamation [2, 6]: 1 (1.1) number (%) of patients
- Sticky skin/Skin disorder [2, 6]: 0 (0.0) number (%) of patients
- Xerophthalmia/Eye disorder [2, 6]: 1 (1.1) number (%) of patients
- Alopecia [2, 7]: 1 (0.3) number (%) of patients
- Arthralgia [2, 7]: 60 (17.2) number (%) of patients
- Atrophy of skin [2, 7]: 0 (0.0) number (%) of patients
- Back pain [2, 7]: 16 (4.6) number (%) of patients
- Cheilitis [2, 7]: 228 (65.5) number (%) of patients
- Dry Skin [2, 7]: 82 (23.6) number (%) of patients
- Dry mouth/Oral dryness [2, 7]: 11 (3.2) number (%) of patients
- Epistaxis [2, 7]: 2 (0.6) number (%) of patients
- Erythematous rash/Erythema [2, 7]: 2 (0.6) number (%) of patients
- Hyperesthesia [2, 7]: 0 (0.0) number (%) of patients
- Nail Disorder [2, 7]: 2 (0.6) number (%) of patients
- Paresthesia [2, 7]: 7 (2.0) number (%) of patients
- Paronychia/Nail disorder [2, 7]: 2 (0.6) number (%) of patients
- Pruritus [2, 7]: 21 (6.0) number (%) of patients
- Rhinitis [2, 7]: 8 (2.3) number (%) of patients
- Rigors/Chills [2, 7]: 9 (2.6) number (%) of patients
- Skin peeling/Desquamation [2, 7]: 3 (0.9) number (%) of patients
- Sticky skin/Skin disorder [2, 7]: 1 (0.3) number (%) of patients
- Xerophthalmia/Eye disorder [2, 7]: 8 (2.3) number (%) of patients
- Cheilitis [3]: 134 (60.1) number (%) of patients
- Conjunctivitis [3]: 0 (0.0) number (%) of patients
- Desquamation central face/Desquamation [3]: 1 (0.4) number (%) of patients
- Dry Skin [3]: 79 (35.4) number (%) of patients
- Dry nose [3]: 7 (3.1) number (%) of patients
- Epistaxis [3]: 6 (2.7) number (%) of patients
- Fingertip peeling/Desquamation [3]: 1 (0.4) number (%) of patients
- Headache [3]: 26 (11.7) number (%) of patients
- Irritation of eyes [3]: 0 (0.0) number (%) of patients
- Joint pain/Arthralgia [3]: 18 (8.1) number (%) of patients
- Peeling/Desquamation [3]: 1 (0.4) number (%) of patients
- Pruritus [3]: 10 (4.5) number (%) of patients
- Rash-dermatitis/Rash [3]: 7 (3.1) number (%) of patients
- Red Scaly face/Desquamation [3]: 1 (0.4) number (%) of patients
- Skin fragility/Skin disorder [3]: 1 (0.4) number (%) of patients
- incidence of agitation ([4]; 4.5 mg orally once daily): < 1%
- incidence of altered hormone levels (TSH, T4, thyroid function test) ([4]; 4.5 mg orally once daily): 0%
- incidence of anxiety ([4]; 4.5 mg orally once daily): 1%
- incidence of depression ([4]; 4.5 mg orally once daily): 1%
- incidence of emotional lability ([4]; 4.5 mg orally once daily): 3%
- incidence of psychosis ([4]; 4.5 mg orally once daily): 0%
- incidence of psychotic depression ([4]; 4.5 mg orally once daily): 0%
- incidence of hypertriglyceridemia, hypercholesterolemia, abnormal liver function tests, increased ALT/AST, desquamation, eye dryness, alopecia ([4]; 4.5 mg orally once daily vs placebo): essentially the same incidence with oral tazarotene as with placebo
- incidence of arthralgia [4, 8]: 17%
- incidence of back pain [4, 8]: 7%
- incidence of cheilitis [4, 8]: 66%
- incidence of dermatitis [4, 8]: 1%
- incidence of dry skin [4, 8]: 24%
- incidence of foot pain [4, 8]: 3%
- incidence of headache [4, 8]: 19%
- incidence of hyperglycemia [4, 8]: 2%
- incidence of joint disorder [4, 8]: 4%
- incidence of myalgia [4, 8]: 14%
- incidence of nasal dryness [4, 8]: 4%
- incidence of rash [4, 8]: 3%
- incidence of patients discontinuing due to adverse effects ([4]; 0.4 to 1.1 mg oral (n=105)): approximately 2%
- incidence of patients discontinuing due to adverse effects ([4]; 2.1 to 2.8 mg oral (n=21)): 10%
